According to patent publication US12439922B2, “Plant-based chemicals for Varroa mite control” (priority 2019, dated 2025):
“And” between values parts separate entries of the source, which are not always exact repeats. Identical values can stand only once. Like-named read-outs stand apart in the source and are kept apart here.

How the values were obtained:
[1] = system: Varroa mites (Varroa destructor); test: LD50 determination for mites (topical application, mortality at 24 h); format: in vivo; settings: for estimated LD50: max. dose 3200 ng/mite in three trials; for Mean LD50 / LD50 1 / LD50 2 / LD50 3: topical, mortality at 24 h; for Mean LD50: mean±se of three trials; for LD50 1: trial 1; for LD50 2: trial 2; for LD50 3: trial 3
Description: Varroa mites (Varroa destructor) were collected from colonies at the Michigan State University apiary in East Lansing, MI. Mites were collected using the “sugar shake” method (Macedo and Ellis 2002). Approximately 350 bees were brushed from brood frames into a plastic basin and then poured into 473 ml wide-mouth Mason jars fitted with screen lids (3 mm×3 mm mesh). Approximately 8 g powdered sugar were sifted through the screen and the jar was shaken for 20 seconds and let to sit for 3 minutes. The mites then fell through the screen onto a piece of paper. Mites were collected, and the sugar dusts were washed off using moistened paintbrushes. Mites were kept in Petri-dishes with worker pupae and transported to the campus lab for LD50 determination.
Chemicals were dissolved in acetone serially diluted to obtain appropriate dosages. Each mite was topically applied with 0.2 μl of acetone containing the tested chemicals. A triplicate of 10 mites per dose were then housed in a Petri dish (diameter 3 cm, 34.5° C., RH 75%) with one white-eyed worker pupa as food. Mortality was assessed at 24 h. Mites were considered dead if no movement is observed in response to prodding with a metal probe.
(§1) For both bee and mite mortality data, control mortality was used to correct the mortality of different doses of drugs (Abbott, 1925). A Log-Probit line was fitted for each treatment from which the LD50 values and 95% confidence intervals were calculated using the R statistical package (R Development Core Team 2008).

honey bees (foragers) = test: LD50 determination for bees (topical application to foragers, mortality observed for 2 days); format: in vivo, Apis mellifera
Description: Honey bees were obtained from the MSU apiary. Forty to fifty colonies were routinely kept during summer months for experiments. Foragers were used for LD50 determination because they are the most sensitive to toxins.
Foragers were collected when they were returning to the hive by an insect vacuum. Foragers were briefly anesthetized with carbon dioxide and individual forager was dosed with 4 μl of acetone containing various dosages of insecticide (at least 5 doses per drug) and a control with 4 μl of acetone only. Bees then were caged together (a triplicate of 10 bees per dose per colony) and their mortality observed for 2 days (acute toxicity) in an incubator (34.5° C., RH 75%).
as §1

Varroa mites = test: Picrotoxinin applied to bees inoculated with Varroa mites: dead mites; format: in vivo, Varroa destructor; settings: for 24-hour dead mite / 4-hour dead mite / 2-hour dead mite: 10 mites on 10 bees per dish
Description: (§2) Picrotoxinin was dissolved in acetone (0.0064 gram picrotoxinin in 1.6 ml acetone=4 ug/ul) and then serially diluted to various doses. A selected amount of picrotoxinin was applied to each bee after CO2 anesthetization. Then, the bees were inoculated with Varroa mites (10 mites on 10 bees per dish). This procedure was employed to ensure that the mites were obtaining the chemical from the bees.
(§3) The numbers of dead Varroa mites and dead bees were recorded after 2, 4 and 24 hours.

bees = format: in vivo, Apis mellifera
Description: as §2, §3

[2] = Highest amount that dissolves in acetone; format: physicochemical; settings: in 4 μl acetone
Description: Higher doses to honey bees were not tested because 2 mg was the highest amount one can dissolve with 4 μl acetone.

CC(C)(C)[C@]1(O)CC2OC(=O)CC23C(=O)OC2OC(=O)[C@H](O)C231 (stereo partly shown) [Bilobalide]
estimated LD50 [1]: >3200 ng/mite

CC1(C)C(C=C(Cl)Cl)C1C(=O)OC(C#N)c1ccc(F)c(Oc2ccccc2)c1 (stereo not shown) [Cyfluthrin, reference compound]
Mean LD50 [1]: 0.63 ± 0.18 ng/mite | LD50 1 [1]: 0.46 ng/mite | LD50 2 [1]: 0.82 ng/mite | LD50 3 [1]: 0.60 ng/mite

C[C@@H]1C(=O)O[C@H]2[C@H](O)[C@@]34[C@H]5C[C@@H](C(C)(C)C)[C@]36[C@@H](OC(=O)[C@@H]6O)O[C@@]4(C(=O)O5)[C@@]12O [Ginkolide B]
estimated LD50 [1]: >3200 ng/mite

C=C(C)[C@@H]1[C@H]2OC(=O)[C@@H]1[C@]1(O)C[C@H]3O[C@]34C(=O)O[C@H]2[C@]14C [Picrotoxinin, picrotoxinin]
LD50 for this particular trial (FIG. 1) ([1]; dose response of FIG. 1): 22.61 ng/mite | susceptibility of Varroa mites to toxicity compared to honey bees ([1]; mite LD50 versus highest bee dose): at least 100,000 fold | Mean LD50 [1]: 20.16 ± 2.00 ng/mite | Mean LD50 ([1]; listed as picrotoxinin): 20.16±2.00 ng/mite | LD50 1 [1]: 20.82 ng/mite | LD50 2 [1]: 22.61 ng/mite | LD50 3 [1]: 17.05 ng/mite | killing of honeybees at highest dose (honey bees (foragers); 2,000,000 ng (2 mg) per bee in 4 μl acetone): failed to kill any honeybees | LD50 (honey bees (foragers); topical to foragers, max dose 2000 ug/bee): >2000 (max dose ug/bee | 24-hour dead mite (Varroa mites; 0.000005 ug/bee): 1 | 4-hour dead mite (Varroa mites; 0.00005 ug/bee): 1 | 2-hour dead mite (Varroa mites; 0.0005 ug/bee): 1 | 4-hour dead mite (Varroa mites; 0.0005 ug/bee): 3 | 24-hour dead mite (Varroa mites; 0.0005 ug/bee): 3 and 2 | 2-hour dead mite (Varroa mites; 0.005 ug/bee): 1 | 4-hour dead mite (Varroa mites; 0.005 ug/bee): 1 | 4-hour dead mite (Varroa mites; 0.05 ug/bee): 2 and 1 | 24-hour dead mite (Varroa mites; 0.05 ug/bee): 5 and 3 | 2-hour dead mite (Varroa mites; 0.1 ug/bee): 2 | 4-hour dead mite (Varroa mites; 0.1 ug/bee): 5 and 4 | 24-hour dead mite (Varroa mites; 0.1 ug/bee): 6 and 9 | 2-hour dead mite (Varroa mites; 1 ug/bee): 2 and 4 | 4-hour dead mite (Varroa mites; 1 ug/bee): 4 and 5 | 24-hour dead mite (Varroa mites; 1 ug/bee): 7 and 10 | 24 hr dead mite (Varroa mites; treatment 1 ug/ul): 9 and 10 | 24 hr dead mite (Varroa mites; treatment 4 ug/ul): 10 | 24-hour dead bee (bees; 0.005 ug/bee, 10 bees per dish): 1 | 2-hour dead bee (bees; 0.1 ug/bee, 10 bees per dish): 1 | 4-hour dead bee (bees; 0.1 ug/bee, 10 bees per dish): 1 | 4-hour dead bee (bees; 1 ug/bee, 10 bees per dish, # = dead perhaps due to leaked sugar syrup): 1# | 24 hr dead bee (bees; treatment 1 ug/ul): 0 | highest amount one can dissolve [2]: 2 mg

Ginkolide A
Mean LD50 [1]: 535.52±450.90 ng/mite | LD50 1 [1]: 348.63 ng/mite | LD50 2 [1]: 1049.82 ng/mite | LD50 3 [1]: 208.10 ng/mite

Ginkolide C
estimated LD50 [1]: >3200 ng/mite
